# Experimental data published in PMC11558998, “Lipophilic bisphosphonates reduced cyst burden and ameliorated hyperactivity of mice chronically infected with Toxoplasma gondii” (mBio, 2024).
# Columns and labels:
# [1] = tested on: hyperactivity of Balb/c mice chronically infected with Pru-GFP; assay: CageDot continuous monitoring of mouse activity during chronic infection; details: 5 mg/kg/day i.p. 16 days, 15 dpt and 2 wpt
# Procedure: At this time, the remaining mice were injected i.p. daily for 16 consecutive days with 200 µL solvent (10% Kolliphor HS-15) or compounds dissolved in 10% HS-15. […] Mice were euthanized humanely 2 weeks after the final injection.
# Mice were monitored during the infection using the CageDot ([30], [31]), which detects vibrations. […] Data are collected at a 100 Hz sampling rate (each second, 100 data points were collected).
# [2] = tested on: T. gondii Me49 strain (type II) tachyzoites; assay: In vitro growth inhibition of red fluorescent tachyzoites, Me49 strain; assay type: cell-based; details: Toxoplasma gondii, tachyzoite growth
# Procedure: (§1) Experiments with T. gondii tachyzoites were carried out with parasites expressing a td-Tomato RFP ([48], [49]). For drug testing and growth assays, parasites were purified by passing them through a 25-gauge needle, followed by filtration through a 5 µm filter. Human fibroblasts were cultured in 96-well black plates for 48 (hTERT) or 120 (HFF) hours prior to the addition of 4,000 (type I) or 8,000 (type II) fluorescent tachyzoites per well. Fluorescence values were measured for up to 7 days (type I) and 21 days (type II), and both excitation (544 nm) and emission (590 nm) were read from the bottom of the plates in a Molecular Devices plate reader ([36]). The EC50s were calculated using GraphPad Prism software.
# [3] = tested on: type I/III EGS strain cysts; assay: Vacuole size of spontaneously formed EGS cysts; assay type: cell-based, Toxoplasma gondii; details: EGS spontaneous cysts, 3x EC50, 4 days
# Procedure: (§2) Type II Me49 or Pru was differentiated using compound 1 as previously described ([50]). Confluent HFF monolayers on glass coverslips (preincubated for 2 hours with 3 µM compound 1, as described previously) were infected with 5 × 10^3 tachyzoites of the ME49 or Pru (type 2) or EGS (type I/III) strain (no compound 1 for EGS). The cells were allowed to grow and differentiate in a 37°C incubator with ambient CO2 for 3 days (EGS was allowed to spontaneously differentiate for 4 days). […] After 7 days (Me49) or 8 days (EGS) of incubation, the cells were fixed with 3% paraformaldehyde for 10 minutes, permeabilized with 0.25% Triton X-100 for 10 minutes, and then blocked in 3% bovine serum albumin for 1 hour. The coverslips were then incubated in DBA rhodamine (for Me49)([51]) or DBA lectin (a kind gift from Diego Huet for EGS) and anti-SAG1 rat antibody (a kind gift from Vern Carruthers) for 2 hours. Then, the secondary anti-rat 488 was used to visualize the SAG1 antibody. The cells were then mounted onto microscope slides with fluoromount and DAPI (4′,6-diamidino-2-phenylindole). The slides were placed in the fridge for a minimum of 24 hours before imaging on a Delta Vision microscope. The vacuole sizes were calculated using ImageJ software.
# [4] = tested on: Human Foreskin Fibroblasts (HFF); assay: Cytotoxicity on HFF cells (Alamar Blue); assay type: cell-based
# Procedure: (§3) The cytotoxicity was tested using an Alamar Blue assay as described by Recher et al. ([49]).
# [5] = tested on: T. gondii ATQ^R R5; assay: In vitro growth inhibition, atovaquone resistant strain R5; assay type: cell-based; details: Toxoplasma gondii, read-out: EC50 ATQ^R R5
# Procedure: as §1
# [6] = tested on: C2C12 myoblasts; assay: Cytotoxicity on C2C12 myoblasts (Alamar Blue); assay type: cell-based
# Procedure: as §3
# [7] = tested on: T. gondii Pru strain (type II) tachyzoites; assay: In vitro growth inhibition of red fluorescent tachyzoites, Pru strain; assay type: cell-based, Toxoplasma gondii; details: tachyzoite growth
# Procedure: as §1
# [8] = tested on: T. gondii tachyzoites; assay: EC50 against tachyzoites indicated in Fig. 1E, used to set 3x and 5x concentrations; details: Toxoplasma gondii, read-out: indicated EC50 (shown in parentheses, Fig. 1E)
# [9] = tested on: ex vivo bradyzoites of the Pru strain from chronically infected mice; assay: Ex vivo bradyzoite growth assay, Pru; assay type: cell-based, Toxoplasma gondii; details: 3x EC50
# Procedure: (§4) Brains of chronically infected mice were collected, homogenized with seven strokes in a glass homogenizer, and then enumerated on a Delta Vision microscope [protocol adapted from reference ([45])]. Twenty-five cysts per plate were then placed in a tube for acid/pepsin (170 mM sodium chloride, 60 mM hydrochloric acid, and 0.1 mg/mL pepsin) treatment for 10 minutes in a 37°C water bath. The cysts were then neutralized with 94 mM Na2CO3. The liberated bradyzoites were then equally distributed into a 12-well plate. For the growth assay, the cells were grown in the presence of compounds or DMSO for 12 and 14 days undisturbed. For the viability assays, the cells were treated with compounds or DMSO for 4 hours before being washed with 1× PBS and then grown for 12 and 14 days in media without compounds. After 12 and 14 days, the cells were fixed with 100% ethanol and stained with 2.5× crystal violet. The control DMSO plaque image is duplicated from Fig. 2B to be used as the representative image of plaques in Fig. 2A. Plaques were quantified on a light microscope using the 4× objective and the size of the plaques was measured using Fiji (ImageJ) software.
# [10] = tested on: T. gondii ATQ^R R4; assay: In vitro growth inhibition, atovaquone resistant strain R4; assay type: cell-based; details: Toxoplasma gondii, read-out: EC50 ATQ^R R4, atovaquone resistant strain R4
# Procedure: as §1
# [11] = tested on: in vitro differentiated Me49 bradyzoites (cysts); assay: Vacuole size of in vitro differentiated Me49 cysts (DBA/SAG1 IFA); assay type: cell-based, Toxoplasma gondii; details: positive control, concentration not stated in the sentence (Fig. 1C: 3x and 5x EC50)
# Procedure: as §2
# [12] = tested on: ex vivo bradyzoites of Me49-RFP from brains of chronically infected mice; assay: Ex vivo bradyzoite growth assay, Me49-RFP; assay type: cell-based, Toxoplasma gondii; details: inhibitors present 14 days, 3x EC50
# Procedure: as §4
# [13] = tested on: in vitro derived Pru cysts; assay: Vacuole size of in vitro derived Pru cysts; assay type: cell-based, Toxoplasma gondii
# Procedure: as §2
# [14] = tested on: toxoplasmosis relapse in patients; details: after 6 years of therapy; cited from earlier work
# [15] = tested on: Me49-RFP brain tissue cysts in Swiss Webster mice; assay: Treatment of Swiss Webster mice chronically infected with Me49-RFP; assay type: in vivo, Toxoplasma gondii; details: Swiss Webster mice, 5,000 Me49-RFP i.p.
# [16] = tested on: Me49-RFP brain tissue cysts in CBA/j mice; assay type: in vivo, Toxoplasma gondii; details: 500 Me49-RFP i.p., 5 mg/kg/day i.p. for 16 days from 28 dpi, brains 2 weeks after treatment
# Procedure: CBA/j female mice (Jackson Laboratory) were injected i.p. with a 200 µL suspension of 500 tachyzoites of the Me49-RFP strain T. gondii (type II genotype). […] At 4 weeks post-infection, the brains of two mice were collected to check for the presence of cysts and to confirm that the mice were in the chronic stage. At this time, the remaining mice were injected i.p. daily for 16 consecutive days with 200 µL solvent (10% Kolliphor HS-15) or compounds dissolved in 10% HS-15. […] Mice were euthanized humanely 2 weeks after the final injection. The mouse brains were collected in 1 mL sterile PBS, minced with scissors, and homogenized using a glass homogenizer. Four 20 µL samples (80 µL total or 8% of sample) of each brain homogenate were placed on a glass microscope slide. Cysts were enumerated using a Delta Vision fluorescence microscope.
# [17] = tested on: ex vivo bradyzoites of the Pru strain from chronically infected mice; assay: Ex vivo bradyzoite viability assay, Pru; assay type: cell-based, Toxoplasma gondii; details: 3x EC50
# Procedure: as §4
# [18] = tested on: ex vivo bradyzoites of Me49-RFP from brains of chronically infected mice; assay: Ex vivo bradyzoite viability assay, Me49-RFP; assay type: cell-based, Toxoplasma gondii; details: inhibitors 4 hours then drug-free 14 days, 3x EC50
# Procedure: as §4
# [19] = tested on: Pru-GFP brain tissue cysts in Balb/c mice; assay: Treatment of Balb/c mice chronically infected with Pru-GFP; details: Balb/c mice, 1,500 Pru-GFP i.p., 5 mg/kg/day i.p. for 16 days from 28 dpi
# Procedure: BALB/c male mice (Jackson Laboratory) were injected i.p. with a 200 µL suspension of 1,500 tachyzoites of the Pru-GFP strain T. gondii (type II genotype) (a gift from Laura Knoll). […] At 4 weeks post-infection, the brains of two mice were collected to check for the presence of cysts and to confirm that the mice were in the chronic stage. At this time, the remaining mice were injected i.p. daily for 16 consecutive days with 200 µL solvent (10% Kolliphor HS-15) or compounds dissolved in 10% HS-15. […] Mice were euthanized humanely 2 weeks after the final injection. The mouse brains were collected in 1 mL sterile PBS, minced with scissors, and homogenized using a glass homogenizer. Four 20 µL samples (80 µL total or 8% of sample) of each brain homogenate were placed on a glass microscope slide. Cysts were enumerated using a Delta Vision fluorescence microscope.
# [20] = tested on: T. gondii RH strain (type I) tachyzoites; assay: In vitro growth inhibition of red fluorescent tachyzoites, RH strain; assay type: cell-based; details: Toxoplasma gondii, tachyzoite growth
# Procedure: as §1
smiles,measurement,setting,value
O=C1C(O)=C([C@H]2CC[C@H](c3ccc(Cl)cc3)CC2)C(=O)c2ccccc21 [Atovaquone],"activity of infected mice (nightly average energy, CageDot)",[1],decreased the activity of the infected mice to similar levels of the control uninfected mice
same,EC50,[2],1.53 ± 0.229 nM
same,size of the vacuoles (cysts),[3],reduced the size of the vacuoles
same,% Inhibition on HFF,[4]; 4X EC50,4.69 ± 2.56%
same,% Inhibition on HFF,[4]; 10X EC50,7.23 ± 2.29%
same,EC50,[5],1030 ± 290 nM
same,% Inhibition on C2C12,[6]; 4X EC50,2.61 ± 4.48%
same,% Inhibition on C2C12,[6]; 10X EC50,6.84 ± 5.34%
same,EC50,[7],4.17 ± 2.34 nM
same,EC50,[8],10 nM
same,"number of plaques, ex vivo growth",[9],significant reduction in the number of plaques
same,EC50,[10],1900 nM
same,vacuole size,[11],reduced vacuole size
same,"number of plaques, ex vivo growth",[12],effective against bradyzoite growth
same,vacuole size,[13],decreased the vacuole size
same,patients experiencing relapse,[14],up to 75%
same,reduction of cyst burden,[15]; ATQ at 5 mg/kg daily for 16 days,65.5%
same,cyst size,[15]; daily treatment 16 days,reduced the size of the cysts
same,reduction in the number of cysts compared to the control,[16],56.6%
same,"number of plaques, ex vivo viability",[17],significant reduction in the number of plaques
same,"number of plaques, ex vivo viability",[18],only a minimal impact on viability
same,reduction of cyst burden,[19],71.9%
CCc1nc(N)nc(N)c1-c1ccc(Cl)cc1 [Pyrimethamine],EC50,[2],1.67 ± 0.268 nM
same,% Inhibition on HFF,[4]; 4X EC50,0.38 ± 2.61%
same,% Inhibition on HFF,[4]; 10X EC50,6.18 ± 0.98%
same,EC50,[5],5.23 ± 0.221 nM
same,% Inhibition on C2C12,[6]; 4X EC50,2.39 ± 3.50%
same,% Inhibition on C2C12,[6]; 10X EC50,6.57 ± 1.31%
same,EC50,[7]; Toxoplasma gondii,43.2 ± 2.58 nM
same,EC50,[20],383 ± 78 nM
same,EC50,[10],22.1 ± 3.52 nM
